Measured values from patent US20050096327A1, “Novel norepinephrine reuptake inhibitors for the treatment of central nervous system disorders” (priority 2003, published 2005).
pKi: −log10 of the molar value.

How the values were obtained:
[1] = molecular target: T1, human norepinephrine transporter (Homo sapiens, UniProt P23975); test: hNET receptor binding ([125I]-RTI-55, membranes of transfected HEK-293 cells); settings: 50 pM [125I]-RTI-55, 90 min room temperature; IC50 converted by Cheng-Prusoff
T1 construct: host or cells: HEK-293
T1 sequence (P23975 whole entry): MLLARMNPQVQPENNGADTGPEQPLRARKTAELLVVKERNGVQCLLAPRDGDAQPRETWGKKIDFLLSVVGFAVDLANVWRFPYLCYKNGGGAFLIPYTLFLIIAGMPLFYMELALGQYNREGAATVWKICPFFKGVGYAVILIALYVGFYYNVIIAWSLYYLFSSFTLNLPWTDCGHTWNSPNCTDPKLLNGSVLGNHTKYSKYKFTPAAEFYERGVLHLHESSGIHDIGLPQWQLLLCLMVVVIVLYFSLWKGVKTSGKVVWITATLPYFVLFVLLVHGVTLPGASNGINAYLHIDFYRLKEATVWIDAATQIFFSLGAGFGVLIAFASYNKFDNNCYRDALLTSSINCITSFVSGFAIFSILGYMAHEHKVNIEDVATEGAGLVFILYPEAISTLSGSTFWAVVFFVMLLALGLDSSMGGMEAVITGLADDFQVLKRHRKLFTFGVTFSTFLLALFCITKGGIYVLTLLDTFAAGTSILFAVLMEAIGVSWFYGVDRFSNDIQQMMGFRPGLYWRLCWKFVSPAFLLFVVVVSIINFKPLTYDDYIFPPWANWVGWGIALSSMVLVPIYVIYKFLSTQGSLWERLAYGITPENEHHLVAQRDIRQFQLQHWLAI
Method in brief: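 Competition binding on membranes from HEK-293 cells transfected with human NET, using 50 pM [125I]-RTI-55 in Krebs-HEPES pH 7.4, drug 10^−5 to 10^−12 M in duplicate, 90 min at room temperature, filtration. Nonspecific binding defined with 10 μM desipramine; IC50 converted to Ki by Cheng-Prusoff.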

[2] = molecular target: T2, human serotonin transporter (Homo sapiens, UniProt P31645); test: hSERT receptor binding ([125I]-RTI-55, membranes of transfected HEK-293 cells); settings: 50 pM [125I]-RTI-55, 90 min room temperature; IC50 converted by Cheng-Prusoff
T2 construct: host or cells: HEK-293
T2 sequence (P31645 whole entry): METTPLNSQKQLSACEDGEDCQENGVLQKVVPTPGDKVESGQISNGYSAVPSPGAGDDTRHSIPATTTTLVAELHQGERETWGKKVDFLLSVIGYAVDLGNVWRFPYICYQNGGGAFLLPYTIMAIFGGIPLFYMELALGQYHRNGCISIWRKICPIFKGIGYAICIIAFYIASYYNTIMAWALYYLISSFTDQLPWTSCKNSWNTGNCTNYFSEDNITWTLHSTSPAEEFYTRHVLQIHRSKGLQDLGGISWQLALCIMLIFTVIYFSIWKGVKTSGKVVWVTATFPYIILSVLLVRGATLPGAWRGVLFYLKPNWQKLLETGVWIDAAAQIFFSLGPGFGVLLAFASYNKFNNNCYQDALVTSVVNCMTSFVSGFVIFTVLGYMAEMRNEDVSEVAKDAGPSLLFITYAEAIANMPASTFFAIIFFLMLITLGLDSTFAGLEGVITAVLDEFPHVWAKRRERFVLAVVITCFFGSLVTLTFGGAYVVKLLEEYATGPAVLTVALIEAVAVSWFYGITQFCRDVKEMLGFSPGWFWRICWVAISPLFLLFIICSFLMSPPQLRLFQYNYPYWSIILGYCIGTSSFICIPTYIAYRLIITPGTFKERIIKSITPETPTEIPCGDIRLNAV
Method in brief: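 Membranes of HEK-293 cells expressing human SERT incubated 90 min at room temperature with 50 pM [125I]-RTI-55 and compound (10^−5 to 10^−12 M) in Krebs-HEPES, pH 7.4. Nonspecific binding defined with 10 μM citalopram; IC50 converted to Ki by Cheng-Prusoff.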

Row | pKi [1] | melting point | pKi [2] | SMILES
1 | 8.42 | 285 to 287 °C |  | Cl.N[C@H]1CCN(c2nc(-c3ccccc3F)c3ccccc3n2)C1 [Example 34, (S)-(+)-1-[4-(2-Fluoro-phenyl)-quinazolin-2-yl]-pyrrolidin-3-ylamine hydrochloride]
2 | 8.43 | 190 to 192 °C |  | Cl.Fc1ccccc1-c1nc(N2CCCNCC2)nc2ccccc12 [Example 21, 2-[1,4]Diazepan-1-yl-4-(2-fluoro-phenyl)-quinazoline hydrochloride]
3 | 7.51 | 261 to 265 °C |  | Cl.N[C@@H]1CCN(c2nc(-c3ccccc3)c3ccccc3n2)C1 [Example 16, (R)-(−)1-(4-Phenyl-quinazolin-2-yl)-pyrrolidin-3-yl-amine hydrochloride]
4 | 8.57 | 147 to 148 °C |  | Fc1ccc2c(-c3ccccc3F)nc(N3CCNCC3)nc2c1 [Example 59, 7-Fluoro-4-(2-fluoro-phenyl)-2-piperazin-1-yl-quinazoline]
5 | 7.09 | 130 to 131 °C |  | CN1CCN(c2nc(-c3ccc(F)cc3)c3ccccc3n2)CC1 [Example 25, 4-(4-Fluoro-phenyl)-2-(4-methyl-piperazin-1-yl)-quinazoline]
6 | 7.53 | 101 to 122 °C |  | CN1CCN(c2nc(-c3ccccc3)c3ccccc3n2)CC1 [Example 1, 2-(4-Methyl-piperazin-1-yl)-4-phenyl-quinazoline]
7 | 8.77 | 276 to 277 °C | 7.92 | Cl.Fc1ccccc1-c1nc(N2CCNCC2)nc2ccccc12 [Example 20, 4-(2-Fluoro-phenyl)-2-piperazin-1-yl-quinazoline hydrochloride]
